Experimental data taken from patent publication US5854081A, “Stable expression of human A2B adenosine receptors, and assays employing the same” (The University of Patent Foundation, priority 1996, dated 1998).
Where two headings read alike, the source gives them in different places.

Legend:
native A2A receptors = experiment: Effect of GTPγS on agonist radioligand binding to native A2A; set-up: species or system human; conditions: Sf9 cell membranes
[1] = biological target: rat striatal A2A receptors; conditions: cited from earlier work
[2] = biological target: T1, recombinant human H/F-A1 adenosine receptor (Homo sapiens, UniProt P30542); experiment: Competition for radioligand binding, H/F-A1; conditions: competition with 1 nM ^125 I-ABA
T1 construct: expressed in transfected cells
T1 sequence (P30542 with tags, fused parts or gaps): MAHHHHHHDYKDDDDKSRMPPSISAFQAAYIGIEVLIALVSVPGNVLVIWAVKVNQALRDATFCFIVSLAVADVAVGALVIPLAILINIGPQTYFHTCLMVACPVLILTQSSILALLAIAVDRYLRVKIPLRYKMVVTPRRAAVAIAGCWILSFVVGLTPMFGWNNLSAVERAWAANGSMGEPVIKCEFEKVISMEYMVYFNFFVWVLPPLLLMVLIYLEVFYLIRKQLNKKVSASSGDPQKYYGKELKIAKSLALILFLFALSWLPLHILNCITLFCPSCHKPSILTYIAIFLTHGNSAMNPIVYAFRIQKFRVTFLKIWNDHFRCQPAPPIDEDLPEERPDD
Procedure: (§1) The experiments were performed in triplicate with 10 μg membrane protein in a total volume of 0.1 mL with 0.5 U/mL adenosine deaminase, with and without 5 mM MgCl2 for agonist and antagonist binding, respectively. […] Bmax and KD were calculated by nonlinear least squares interpolation for single or two-site binding models. K1 values for different compounds were derived from IC50 values. Data from replicate experiments were tabulated as means ± SEM.
(§2) Twelve compounds were evaluated to determine their potencies to compete for radioligand binding to native- and H/F-A1 or A2A receptors.

[3] = tested on: H/F-A1 adenosine receptors; experiment: Inhibition of cyclic AMP accumulation, CHO-K1 cells with H/F-A1; assay type: cell-based, human
Procedure: (§3) CHO-K1 cells were incubated without or with 100 mg/mL pertussis toxin. […] Five-hundred microliters of the supernatants were removed, acetylated, and assayed for cyclic AMP by automated radioimmunoassay.

[4] = tested on: untransfected CHO-K1 cells; experiment: Cyclic AMP levels in untransfected CHO-K1 cells; assay type: cell-based; conditions: concentrations up to 1 μM
Procedure: as §3

[5] = biological target: T2, recombinant human native-A1 adenosine receptor (Homo sapiens, UniProt P30542); experiment: Competition for radioligand binding, native-A1; set-up: expressed in transfected cells; conditions: competition with 1 nM ^125 I-ABA
T2 sequence (P30542 1-326): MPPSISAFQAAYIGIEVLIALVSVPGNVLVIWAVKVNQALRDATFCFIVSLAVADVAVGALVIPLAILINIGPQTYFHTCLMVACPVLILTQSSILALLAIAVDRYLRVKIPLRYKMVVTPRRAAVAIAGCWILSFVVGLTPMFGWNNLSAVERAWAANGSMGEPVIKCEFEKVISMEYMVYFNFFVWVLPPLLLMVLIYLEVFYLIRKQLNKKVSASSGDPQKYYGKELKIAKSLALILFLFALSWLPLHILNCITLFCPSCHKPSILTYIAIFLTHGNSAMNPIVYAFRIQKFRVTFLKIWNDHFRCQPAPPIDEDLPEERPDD
Procedure: as §1, §2

A3 AR [6] = experiment: Activation of A3 AR; conditions: >μM levels
A2B receptors = biological target: T3, A2B receptors (Homo sapiens, UniProt P29275); experiment: Inhibition of NECA-stimulated cyclic AMP accumulation in A2B transfected HEK-293 cells (Schild analysis); assay type: cell-based; conditions: read-out: pA2 (antagonism, Schild analysis) (converted)
T3 construct: expressed in transfected cells; host or cells: HEK-293
T3 sequence (P29275 1-332): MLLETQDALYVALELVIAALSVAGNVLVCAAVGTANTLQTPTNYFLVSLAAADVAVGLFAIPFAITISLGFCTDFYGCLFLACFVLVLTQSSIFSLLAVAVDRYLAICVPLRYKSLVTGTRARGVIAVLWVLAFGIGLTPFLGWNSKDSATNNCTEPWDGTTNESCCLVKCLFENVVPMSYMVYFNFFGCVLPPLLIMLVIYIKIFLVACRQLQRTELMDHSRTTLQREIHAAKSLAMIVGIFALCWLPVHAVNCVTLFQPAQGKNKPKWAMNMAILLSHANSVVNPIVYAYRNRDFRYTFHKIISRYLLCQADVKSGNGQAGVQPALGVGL
Text: The radioligands used to label the A1 and A2A receptors are commonly used and are commercially available. However, there are no reports in the literature of radioligands useful for detecting A2B receptors. […] Based on this observation [^3 H]DPX was custom triiated by NEN.

A2B adenosine receptors = biological target: T4, A2B adenosine receptors (Homo sapiens, UniProt P29275); experiment: A2B radioligand binding assay; conditions: FIG. 6
T4 construct: made in house
T4 sequence (P29275 1-332): T3 sequence (P29275 1-332)

[7] = biological target: T1, recombinant human H/F-A1 adenosine receptor; experiment: Saturation radioligand binding, H/F-A1 (CHO-K1 membranes)
[8] = biological target: T2, recombinant human native-A1 adenosine receptor; experiment: Saturation radioligand binding, native-A1 (CHO-K1 membranes)
[9] = Block of ^125 I-ABA binding to lung membranes
A3 AR [10] = experiment: A3 AR selectivity of radioligand; assay type: binding
Text: These receptors can be labeled nonselectively by agonist radioligands that also label A1 AR.

[11] = biological target: recombinant human H/F-A2A adenosine receptor (Homo sapiens, UniProt P29274); experiment: Competition for radioligand binding, H/F-A2A
Chain of recombinant human H/F-A2A adenosine receptor (P29274 with tags, fused parts or gaps): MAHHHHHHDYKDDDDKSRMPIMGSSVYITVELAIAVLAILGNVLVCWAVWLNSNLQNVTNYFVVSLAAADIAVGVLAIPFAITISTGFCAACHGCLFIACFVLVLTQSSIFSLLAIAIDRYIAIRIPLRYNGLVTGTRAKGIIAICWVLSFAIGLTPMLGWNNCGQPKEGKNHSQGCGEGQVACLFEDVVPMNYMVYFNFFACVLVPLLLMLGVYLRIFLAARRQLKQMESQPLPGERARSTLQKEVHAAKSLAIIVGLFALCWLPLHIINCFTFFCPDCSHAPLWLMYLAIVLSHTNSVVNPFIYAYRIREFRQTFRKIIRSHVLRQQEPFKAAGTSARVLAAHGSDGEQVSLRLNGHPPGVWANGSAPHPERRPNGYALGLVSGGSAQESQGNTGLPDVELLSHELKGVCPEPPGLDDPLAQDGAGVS

[12] = biological target: recombinant human native-A2A adenosine receptor (Homo sapiens, UniProt P29274); experiment: Competition for radioligand binding, native-A2A
Chain of recombinant human native-A2A adenosine receptor (P29274 whole entry): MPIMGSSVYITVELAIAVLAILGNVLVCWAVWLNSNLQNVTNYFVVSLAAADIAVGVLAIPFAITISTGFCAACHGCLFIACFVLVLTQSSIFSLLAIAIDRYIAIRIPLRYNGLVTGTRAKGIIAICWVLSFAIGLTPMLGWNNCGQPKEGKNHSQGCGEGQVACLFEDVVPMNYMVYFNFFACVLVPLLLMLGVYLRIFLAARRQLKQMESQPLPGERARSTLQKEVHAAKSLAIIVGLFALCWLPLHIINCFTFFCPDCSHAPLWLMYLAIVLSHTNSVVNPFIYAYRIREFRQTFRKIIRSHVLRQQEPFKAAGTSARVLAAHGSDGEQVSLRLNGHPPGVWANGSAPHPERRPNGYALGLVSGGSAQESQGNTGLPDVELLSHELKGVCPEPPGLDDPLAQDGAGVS

[13] = ^125 I-ABA: high affinity sites
[14] = competition with 70 nM [^3 H]NECA
[15] = read-out: K1, competition with 70 nM [^3 H]NECA

SMILES: Nc1nc2c(ncn2[C@@H]2O[C@H](COP(=O)(O)OP(=O)(O)OP(O)(O)=S)[C@@H](O)[C@H]2O)c(=O)[nH]1 [GTPγS]
- reduction of [^3 H]CGS21680 / [^3 H]NECA binding by GTPγS (native A2A receptors): reduced only slightly
- reduction in number of high affinity agonist (^125 I-ABA) binding sites by GTPγS (H/F-A1 receptors): large reduction

SMILES: CCNC(=O)[C@H]1O[C@@H](n2cnc3c(N)nc(NCCc4ccc(CCC(=O)O)cc4)nc32)[C@H](O)[C@@H]1O [[^3 H]CGS21680]
- Kd ([1]; G protein coupled rat striatal A2A receptors): 3.9 nM
- Kd ([1]; G protein uncoupled rat striatal A2A receptors): 51 nM

SMILES: OC[C@H]1O[C@@H](n2cnc3c(NC4CCCC4)ncnc32)[C@H](O)[C@@H]1O [CPA, N^6 -cyclopentyladenosine]
- NH (Hill coefficient) [2]: 0.79
- inhibition of cyclic AMP accumulation [3]: potently inhibited
- inhibition of cyclic AMP accumulation after pertussis toxin ([3]; preincubated with pertussis toxin): abolished
- effect on cyclic AMP levels [4]: no effect
- NH (Hill coefficient) [5]: 0.93 ± 0.16

SMILES: CCNC(=O)[C@H]1O[C@@H](n2cnc3c(N)nc(NCCc4ccc(CCC(=O)O)cc4)nc32)[C@H](O)[C@@H]1O [CGS21680, 2-(r-(s-carboxyethyl)phen-ethylamino)-5'-N-ethylcarboxamidondenosine]
- activation of A3 AR (A3 AR [6]): activate A3 AR

SMILES: CCn1c(=O)c2[nH]c(-c3ccccc3)nc2n(CC)c1=O [1,3-diethyl-8-phenylxanthine (DPX), 1,3-diethyl-8-phenylxanthine]
- Kb (A2B receptors): 30 nM

SMILES: CCn1c(=O)c2[nH]c(-c3ccccc3)nc2n(CC)c1=O [[^3 H]DPX]
- detection of A2B receptors by radioligand binding (A2B adenosine receptors): first successful detection of A2B adenosine receptors by radioligand binding

SMILES: Nc1ccc(CNc2ncnc3c2ncn3[C@@H]2O[C@H](CO)[C@@H](O)[C@H]2O)cc1I [^125 I-ABA]
- Kd [7, 13]: 0.98 ± 0.16 nM
- Kd [8, 13]: 102 ± 0.03 nM

SMILES: Nc1ccc(CNc2ncnc3c2ncn3[C@@H]2O[C@H](CO)[C@@H](O)[C@H]2O)cc1[125I] [^125 I-ABA]
- Bmax [7]: 3.3 ± 0.5 pmol/mg protein
- Bmax [8]: 3.5 ± 0.8 pmol/mg protein

SMILES: CNC(=O)[C@H]1O[C@@H](n2cnc3c(NCc4cccc(I)c4)ncnc32)[C@H](O)[C@@H]1O [IB-MECA]
- block of ^125 I-ABA binding to lung membranes ([9]; concentration not given): blocked

SMILES: CCCn1c(=O)c2[nH]c(-c3ccc(OCC(=O)O)cc3)nc2n(Cc2ccc(N)c([125I])c2)c1=O [^125 I-ABOPX]
- selectivity of radioligand (A3 AR [10]): A3 AR-selective

SMILES: CCNC(=O)[C@H]1O[C@@H](n2cnc3c(N)ncnc32)[C@H](O)[C@@H]1O [NECA, 5'-N-ethylcarboxamidondenosine]
- NH (Hill coefficient) [2]: 0.97
- NH (Hill coefficient) [5]: 0.95 ± 0.09

SMILES: Cn1c(=O)c2[nH]cnc2n(C)c1=O [theophylline]
- affinity for A3 AR (rat A3AR): very low affinity
- affinity for A3 AR (sheep A3AR): very low affinity

SMILES: CC(C)N(C)c1nc2c(N[C@@H]3CC4CC3CC4O)ncnc2n1C (stereo partly shown) [WRC-0571]
- block of ^125 I-ABA binding to lung membranes ([9]; 1 μM): not blocked

SMILES: Cn1c(=O)c2[nH]c(-c3ccc(S(=O)(=O)O)cc3)nc2n(C)c1=O [8-SPT, 8-P-sulfophenyltheophylline]
- NH (Hill coefficient) [2]: 0.84
- NH (Hill coefficient) [5]: 0.87 ± 0.05

SMILES: CCCn1c(=O)c2[nH]c(-c3ccc(OCC(=O)NCCN)cc3)nc2n(CCC)c1=O [XAC, xanthine amino congenen]
- NH (Hill coefficient) [2]: 0.96
- NH (Hill coefficient) [5]: 1.12 ± 0.11

SMILES: CCCn1c(=O)c2nc(-c3ccc(OCC(=O)O)cc3)[nH]c2n(Cc2ccc(N)c(I)c2)c1=O [1ABOPX, 3-iodoaminobenzyl-1-propyl-8-p-(oxyacetate)-phenylxanthine]
- NH (Hill coefficient) [11, 14]: 0.94 ± 0.14
- Ki [11, 15]: 22 ± 3.6 nM
- NH (Hill coefficient) [12, 14]: 0.84 ± 0.17
- Ki [12, 15]: 23.7 ± 7.5 nM
